Measured values as given in patent publication US20100184601A1, “Method and Means Relating to Multiple Herbicide Resistance in Plants” (University of Durham, priority 2007, published 2010).

Tested on: AmGSTL1
Test: Effect of inhibitors on activity of recombinant black-grass AmGSTL (thiol transferase)
Type: biochemical, black-grass (Alopecurus myosuroides)
Settings: 0.1 mM inhibitor; recombinant enzyme

Structure (SMILES): O=C1O/C(=C/Br)CCC1c1cccc2ccccc12 (stereo not shown) [BEL, Bromoenol lactone]
- inhibition of AmGSTL1 activity: totally inhibited
